“Also recorded” adds a separate entry of the source. Like-named read-outs stand apart in the source and are kept apart here.
Assays:
hPTP1B = target: T1, hPTP1B (Homo sapiens, UniProt P18031); test: biochemical; settings: read-out: IC50 hPTP1B (Supplementary Table 1)
T1 construct: GST (N, cleaved yes); made in house; host or cells: E. coli

hVHR = target: T2, hVHR (Homo sapiens, UniProt P51452); test: biochemical; settings: read-out: IC50 hVHR (Supplementary Table 1)
T2 construct: GST (N, cleaved yes); made in house; host or cells: E. coli
T2 sequence (P51452 whole entry): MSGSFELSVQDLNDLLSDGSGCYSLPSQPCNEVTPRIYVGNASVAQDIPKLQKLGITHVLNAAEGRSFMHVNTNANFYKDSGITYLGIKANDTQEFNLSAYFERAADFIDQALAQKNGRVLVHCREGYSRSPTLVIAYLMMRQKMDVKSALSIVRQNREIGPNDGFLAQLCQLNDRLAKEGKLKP

[1] = system: BCG in mouse macrophages (J774); type: cell-based, Mycobacterium bovis Bacille Calmette-Guerin
[2] = system: M. tuberculosis H37Rv in human macrophages (THP1); type: cell-based
[3] = system: MDR strain (Beijing-W) in human macrophages (THP1); type: cell-based, M. tuberculosis
BCG = type: cell-based, Mycobacterium bovis Bacille Calmette-Guerin
[4] = system: PI3P on M. tuberculosis phagosomes (RAW264.7 macrophages); type: cell-based
[5] = Pharmacokinetic evaluation in guinea pigs; type: in vivo; settings: male, Durkin Hartley, guinea pig, in vivo
Experimental: Guinea pig males (Durkin Hartley) were used to evaluate the pharmacokinetics and tissue distribution of compounds. The route of administration was either intraperitoneal (ip) or oral (po) with dosage varying from 3.5 to 8 mg kg^–1 (op) and 2.5–4 mg kg^–1 (ip). In each case 4 samples were collected per time point at 0.1, 0.5, 2, 4, and 8 h post dose for ip and 0.25, 0.5, 2, 4, and 8 h post dose for po. Compounds were prepared in 10% DMSO, 5% Cremaphor, and 85% physiological saline for IP administration or 0.5% (v/v) Tween 80, 99.5% (v/v) 0.5% methylcellulose for oral administration. Tissue samples (n = 4) from lung, liver, and kidney were collected at the end of the study and snap frozen prior to bioanalysis.

M. tuberculosis H37Rv = test: Acute guinea pig model of TB infection; type: in vivo; settings: 28 days of treatment, oral daily, 13 100 mg/kg, RIF 50 mg/kg
M. tuberculosis = type: in vivo, guinea pig
physchem = type: physicochemical; settings: pH 7.4
Experimental: Experimental Methods (ADME determinations).
ADME determinations for Compound 13 (data kindly supplied by LifeArc).
LogD measurements were carried out using the shake flask method. Compound was diluted from a 10 mM DMSO stock solution into an eppendorf containing equal amounts of octanol and phosphate buffered saline (PBS) to give a final concentration of 100 µM. The tubes were shaken for 12 hours, centrifuged at 10000 rpm for 10 minutes and samples taken from the octanol and PBS layers. The samples from both layers were analysed in triplicate by LC-MS/MS (Aglient Technologies G6410 series, triple quadrupole with MM-ESI ion source) using optimised multiple reaction monitoring (MRM) scans and a standard column gradient on an Acquity UPLC BEH C8 1.7 µm column, running acetonitrile and water with 0.05% acetic acid as the mobile phase. The ratios of areas of the peaks were used to calculate the Log D in accordance with the equation:
Log D = Log10(Area-TL/Area BL)
PBS pH7.4 in a filtration plate at a target concentration of 200 µM giving a final solution composition of 98:2 PBS:DMSO. […] The UV absorbance for these solutions was read across 230-400 nM at 1 nM intervals using a T ECAN Safire II plate reader and a suitable UV wavelength chosen around the UV maximum of each compound. […]

[6] = guinea pig, 50 or 100 mg/kg orally once daily for 7 days
[7] = chronic model, 28 days of treatment from day 28, oral daily, 13 100 mg/kg, RIF 50 mg/kg
[8] = chronic model, 28 days of treatment from day 28, oral daily, 13 100 mg/kg, RIF 50 mg/kg, listed as Cpd 13

T1 sequence (P18031 whole entry): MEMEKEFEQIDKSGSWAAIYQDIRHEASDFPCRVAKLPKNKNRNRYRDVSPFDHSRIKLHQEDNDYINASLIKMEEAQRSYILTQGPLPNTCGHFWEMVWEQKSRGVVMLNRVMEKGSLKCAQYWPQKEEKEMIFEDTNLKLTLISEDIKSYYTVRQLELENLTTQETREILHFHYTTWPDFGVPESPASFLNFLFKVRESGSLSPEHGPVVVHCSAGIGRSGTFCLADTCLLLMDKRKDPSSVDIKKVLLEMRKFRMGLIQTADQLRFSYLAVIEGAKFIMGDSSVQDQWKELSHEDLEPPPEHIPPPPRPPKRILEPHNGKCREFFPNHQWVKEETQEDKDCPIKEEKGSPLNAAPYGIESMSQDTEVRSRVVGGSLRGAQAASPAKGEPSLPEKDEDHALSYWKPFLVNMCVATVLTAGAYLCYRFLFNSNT

Cc1onc(C(=O)O)c1-c1cccc(-c2cc(Cl)c(O)c(Cl)c2)c1 [Compound 13, 4-(3′,5′-Dichloro-4′-hydroxy-3-biphenyl)-5-methylisoxazole-3-carboxylic Acid]
IC50 (hPTP1B): > 100 µM
IC50 (hVHR): > 100 µM
reduction in intracellular mycobacterial (BCG) burden [1]: up to 84%
reduction of intracellular mycobacterial burden, H37Rv [2]: up to 63%
reduction of intracellular mycobacterial burden, MDR strain (Beijing-W) [3]: up to 74%
effect on extracellular growth of BCG (BCG): does not affect extracellular bacterial growth; also recorded: not affected
duration of the peak of PI3P on phagosomes [4]: up to 12 min
half-life ([5]; ip, 4 mg/kg, IP, dose mg/kg: 13 4, 5 2.5, 8 1.25, 9 2.5): 1.4 h
half-life ([5]; po, 8 mg/kg, oral, dose mg/kg: 13 8, 5 5, 8 3.5, 9 5): 5 h
Lungs infection burden, average (M. tuberculosis H37Rv): 5.9 log CFU
Lungs log reduction relative to vehicle (M. tuberculosis H37Rv): 0.9 log
Spleen infection burden, average (M. tuberculosis H37Rv): 5.6 log CFU
Spleen log reduction relative to vehicle (M. tuberculosis H37Rv): 0 log
Lungs infection burden, average (M. tuberculosis; [7]): 4.7 log CFU
Lungs log reduction relative to vehicle (M. tuberculosis; [7]): at least 1 log
Spleen infection burden, average (M. tuberculosis; [7]): 4.2 log CFU
Spleen log reduction relative to vehicle (M. tuberculosis; [7]): at least 1 log
Lungs log reduction relative to vehicle (M. tuberculosis; [8]): 1.0 log
Spleen log reduction relative to vehicle (M. tuberculosis; [8]): 1.0 log
Lungs weight % change relative to Vehicle (M. tuberculosis; guinea pig, in vivo): -19%
Lungs weight, average (M. tuberculosis; guinea pig, in vivo): 4.4 g
Spleen weight % change relative to Vehicle (M. tuberculosis; guinea pig, in vivo): -19%
Spleen weight, average (M. tuberculosis; guinea pig, in vivo): 2.1 g
histopathology of lungs and spleens (M. tuberculosis; guinea pig, in vivo, 100 mg/kg): improvement in the pathology
logD (physchem): 4
adverse drug effects (tolerability) [6]: no adverse drug effects
weight increases during the tolerability trial [6]: > 5%

Reference: publication PMC6459586, “Structure-Based Design of MptpB Inhibitors That Reduce Multidrug-Resistant Mycobacterium tuberculosis Survival and Infection Burden in Vivo” (Journal of Medicinal Chemistry, 2018)
